Experimental data reported in ChEMBL document CHEMBL6153138, “Discovery of Novel Aromatic Urea-Imidazole Salt Derivatives for Cancer Therapy via Targeting ERK1/2” (J Med Chem, 2025).
Calls of active or inactive are those of the source. The calls are words filed in the database; no cut-off is given here.

Assays:
[1] = target: Mitogen-activated protein kinase 1 (Homo sapiens, UniProt P28482); assay: Inhibition of ERK2 (unknown origin) incubated for 60 mins by luminescence based ADP-Glo kinase assay
Sequence of Mitogen-activated protein kinase 1 (P28482 whole entry): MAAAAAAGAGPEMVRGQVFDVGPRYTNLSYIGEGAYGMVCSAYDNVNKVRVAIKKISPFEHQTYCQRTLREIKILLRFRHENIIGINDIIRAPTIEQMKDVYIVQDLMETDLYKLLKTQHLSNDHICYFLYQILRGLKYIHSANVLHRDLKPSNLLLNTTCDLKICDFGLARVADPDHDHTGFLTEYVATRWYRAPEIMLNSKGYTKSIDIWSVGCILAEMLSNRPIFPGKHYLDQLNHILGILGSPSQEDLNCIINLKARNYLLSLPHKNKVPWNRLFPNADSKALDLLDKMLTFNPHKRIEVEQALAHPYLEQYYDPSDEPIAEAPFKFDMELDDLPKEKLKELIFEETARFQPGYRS

MCF7 [2] = assay: Antiproliferative activity against human MCF7 cells incubated for 48 hrs by CCK-8 method; type: functional, cell-based; settings: MCF7, 48 h
MCF-10A = assay: Antiproliferative activity against human MCF-10A cells incubated for 48 hrs by CCK-8 method; type: functional, cell-based
[3] = AUC (0 to infinity) in Sprague-Dawley rat at 1 mg/kg, iv by LC-MS/MS analysis; type: ADME, organism-based; settings: in vivo
[4] = Clearance in Sprague-Dawley rat at 1 mg/kg, iv by LC-MS/MS analysis; type: ADME, organism-based; settings: in vivo
[5] = Half life in Sprague-Dawley rat at 10 mg/kg, po by LC-MS/MS analysis; type: ADME, organism-based; settings: in vivo
MCF7 [6] = assay: Downregulation of total c-Myc expression in human MCF7 cells at 0.5 to 2 uM measured after 30 mins to 4 hrs by Western blot analysis; type: functional, cell-based; settings: dose 0.5-2 µM, time 30-240 min
MCF7 [7] = assay: Upregulation of ERK1/2 phosphorylation expression in human MCF7 cells at 2 uM measured after 8 hrs by immunofluorescence analysis; type: functional, cell-based
[8] = target: Vascular endothelial growth factor receptor 1 (Homo sapiens) (UniProt P17948); assay: Inhibition of human FLT1 at 10000 nM by DiscoverX KINOMEscan assay relative to control
Sequence of Vascular endothelial growth factor receptor 1 (Homo sapiens) (P17948 whole entry): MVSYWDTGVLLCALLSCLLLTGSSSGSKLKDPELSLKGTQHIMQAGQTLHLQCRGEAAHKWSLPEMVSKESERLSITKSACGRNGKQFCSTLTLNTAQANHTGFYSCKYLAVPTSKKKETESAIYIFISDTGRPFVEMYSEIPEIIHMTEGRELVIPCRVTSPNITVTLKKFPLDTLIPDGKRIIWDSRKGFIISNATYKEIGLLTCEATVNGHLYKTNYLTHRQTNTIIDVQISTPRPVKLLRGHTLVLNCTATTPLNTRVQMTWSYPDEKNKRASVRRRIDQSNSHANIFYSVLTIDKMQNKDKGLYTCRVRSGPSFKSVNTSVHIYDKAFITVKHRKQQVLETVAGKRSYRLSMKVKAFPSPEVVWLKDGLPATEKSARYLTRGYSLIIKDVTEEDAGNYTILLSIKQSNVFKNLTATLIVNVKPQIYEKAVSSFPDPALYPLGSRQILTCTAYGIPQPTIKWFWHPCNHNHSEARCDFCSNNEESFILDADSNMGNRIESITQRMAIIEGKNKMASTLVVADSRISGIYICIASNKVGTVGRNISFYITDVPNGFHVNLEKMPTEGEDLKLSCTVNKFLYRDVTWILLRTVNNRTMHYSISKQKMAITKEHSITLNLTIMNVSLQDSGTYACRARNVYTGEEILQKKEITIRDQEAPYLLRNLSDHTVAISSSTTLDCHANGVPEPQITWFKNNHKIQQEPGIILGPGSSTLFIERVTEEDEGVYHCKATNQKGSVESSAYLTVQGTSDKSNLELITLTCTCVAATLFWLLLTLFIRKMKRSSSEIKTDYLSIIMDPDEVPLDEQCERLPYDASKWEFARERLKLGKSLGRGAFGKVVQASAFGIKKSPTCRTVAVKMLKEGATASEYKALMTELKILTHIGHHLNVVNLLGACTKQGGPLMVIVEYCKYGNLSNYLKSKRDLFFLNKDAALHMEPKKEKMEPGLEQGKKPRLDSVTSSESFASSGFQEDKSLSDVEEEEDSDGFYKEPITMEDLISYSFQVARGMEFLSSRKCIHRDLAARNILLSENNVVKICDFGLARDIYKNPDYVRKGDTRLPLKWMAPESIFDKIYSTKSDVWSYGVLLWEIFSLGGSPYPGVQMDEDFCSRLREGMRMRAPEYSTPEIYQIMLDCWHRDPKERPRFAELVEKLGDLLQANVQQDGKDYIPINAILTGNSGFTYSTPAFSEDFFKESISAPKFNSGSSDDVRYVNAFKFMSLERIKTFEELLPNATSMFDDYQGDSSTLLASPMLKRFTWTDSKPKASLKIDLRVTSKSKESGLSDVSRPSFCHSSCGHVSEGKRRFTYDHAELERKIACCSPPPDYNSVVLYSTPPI

[9] = target: Vascular endothelial growth factor receptor 3 (Homo sapiens) (UniProt P35916); assay: Inhibition of human FLT4 at 10000 nM by DiscoverX KINOMEscan assay relative to control
Sequence of Vascular endothelial growth factor receptor 3 (Homo sapiens) (P35916 whole entry): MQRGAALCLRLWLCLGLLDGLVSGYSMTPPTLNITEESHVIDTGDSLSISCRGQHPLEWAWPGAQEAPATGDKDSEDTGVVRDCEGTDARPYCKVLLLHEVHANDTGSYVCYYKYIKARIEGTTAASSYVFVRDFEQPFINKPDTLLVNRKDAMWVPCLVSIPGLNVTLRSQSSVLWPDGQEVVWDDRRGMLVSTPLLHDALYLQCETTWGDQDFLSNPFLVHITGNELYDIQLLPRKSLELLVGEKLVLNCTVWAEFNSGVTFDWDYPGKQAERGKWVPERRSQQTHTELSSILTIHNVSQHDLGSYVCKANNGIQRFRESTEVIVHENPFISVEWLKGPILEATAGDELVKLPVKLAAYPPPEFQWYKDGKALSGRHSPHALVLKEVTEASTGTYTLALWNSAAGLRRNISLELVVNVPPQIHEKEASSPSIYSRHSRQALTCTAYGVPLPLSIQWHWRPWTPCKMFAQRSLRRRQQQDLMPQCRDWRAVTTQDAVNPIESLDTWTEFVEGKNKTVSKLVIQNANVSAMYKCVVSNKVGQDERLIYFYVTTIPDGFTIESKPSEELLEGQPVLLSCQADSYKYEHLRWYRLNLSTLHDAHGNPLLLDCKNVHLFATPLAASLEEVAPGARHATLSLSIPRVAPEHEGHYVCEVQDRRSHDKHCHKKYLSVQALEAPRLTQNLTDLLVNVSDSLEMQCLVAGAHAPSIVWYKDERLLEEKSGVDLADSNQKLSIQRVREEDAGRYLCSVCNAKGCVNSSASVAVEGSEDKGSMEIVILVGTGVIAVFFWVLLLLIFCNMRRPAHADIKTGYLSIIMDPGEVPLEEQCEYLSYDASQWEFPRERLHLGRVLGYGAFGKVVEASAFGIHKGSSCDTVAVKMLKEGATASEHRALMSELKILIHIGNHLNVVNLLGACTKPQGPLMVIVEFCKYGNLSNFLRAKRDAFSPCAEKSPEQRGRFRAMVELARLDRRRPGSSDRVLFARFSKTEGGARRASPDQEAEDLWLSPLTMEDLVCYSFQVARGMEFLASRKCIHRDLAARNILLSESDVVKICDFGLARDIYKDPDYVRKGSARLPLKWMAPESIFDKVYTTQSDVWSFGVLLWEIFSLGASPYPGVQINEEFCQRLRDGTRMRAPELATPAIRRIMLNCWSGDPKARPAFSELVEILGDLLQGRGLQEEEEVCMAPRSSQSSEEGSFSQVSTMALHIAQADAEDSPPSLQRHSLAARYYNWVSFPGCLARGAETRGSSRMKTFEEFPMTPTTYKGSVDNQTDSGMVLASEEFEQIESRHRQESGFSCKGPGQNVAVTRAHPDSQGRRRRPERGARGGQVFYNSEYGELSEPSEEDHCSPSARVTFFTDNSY

[10] = target: Serine/threonine-protein kinase TAO2 (Homo sapiens) (UniProt Q9UL54); assay: Inhibition of human TAO2 at 10000 nM by DiscoverX KINOMEscan assay relative to control
Sequence of Serine/threonine-protein kinase TAO2 (Homo sapiens) (Q9UL54 whole entry): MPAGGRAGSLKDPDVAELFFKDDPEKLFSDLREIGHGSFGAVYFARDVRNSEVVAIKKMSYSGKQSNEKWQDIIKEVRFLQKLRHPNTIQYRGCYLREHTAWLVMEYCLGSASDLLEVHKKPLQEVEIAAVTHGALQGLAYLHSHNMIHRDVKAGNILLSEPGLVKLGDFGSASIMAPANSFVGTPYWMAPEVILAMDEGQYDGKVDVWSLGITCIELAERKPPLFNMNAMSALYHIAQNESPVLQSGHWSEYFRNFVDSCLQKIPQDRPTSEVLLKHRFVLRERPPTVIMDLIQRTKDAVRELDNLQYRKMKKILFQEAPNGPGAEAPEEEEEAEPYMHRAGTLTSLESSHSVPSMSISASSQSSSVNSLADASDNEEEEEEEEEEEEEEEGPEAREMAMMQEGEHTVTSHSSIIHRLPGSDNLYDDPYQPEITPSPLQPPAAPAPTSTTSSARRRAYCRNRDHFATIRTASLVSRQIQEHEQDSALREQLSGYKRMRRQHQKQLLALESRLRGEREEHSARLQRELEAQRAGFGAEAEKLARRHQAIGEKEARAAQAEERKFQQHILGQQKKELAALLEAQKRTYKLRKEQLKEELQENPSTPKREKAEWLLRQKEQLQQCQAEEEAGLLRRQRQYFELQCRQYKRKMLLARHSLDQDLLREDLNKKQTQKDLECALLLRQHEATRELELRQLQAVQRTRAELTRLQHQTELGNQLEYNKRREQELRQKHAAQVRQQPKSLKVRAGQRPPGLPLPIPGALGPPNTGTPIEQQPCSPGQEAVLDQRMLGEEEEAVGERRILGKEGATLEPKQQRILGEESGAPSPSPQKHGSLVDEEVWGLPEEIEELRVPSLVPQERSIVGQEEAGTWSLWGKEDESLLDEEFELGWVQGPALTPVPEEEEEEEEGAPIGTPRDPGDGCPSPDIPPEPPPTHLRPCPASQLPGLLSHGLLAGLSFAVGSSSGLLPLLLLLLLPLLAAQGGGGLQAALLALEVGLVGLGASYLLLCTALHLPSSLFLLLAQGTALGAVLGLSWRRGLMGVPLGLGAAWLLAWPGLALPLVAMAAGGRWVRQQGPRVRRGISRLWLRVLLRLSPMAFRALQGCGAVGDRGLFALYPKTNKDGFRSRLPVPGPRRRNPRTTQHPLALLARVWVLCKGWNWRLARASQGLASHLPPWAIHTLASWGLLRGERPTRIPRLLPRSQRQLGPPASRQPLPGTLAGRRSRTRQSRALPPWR

MCF7 [11] = assay: Inhibition of proliferation in human MCF7 cells at 0.5 to 2 uM incubated for 48 hrs by EdU incorporation assay; type: functional, cell-based; settings: dose 0.5-2 µM
MCF7 [12] = assay: Downregulation of N-cadherin expression in human MCF7 cells at 0.5 to 2 uM; type: functional, cell-based; settings: dose 0.5-2 µM
MCF7 [13] = assay: Downregulation of vimentin expression in human MCF7 cells at 0.5 to 2 uM; type: functional, cell-based; settings: dose 0.5-2 µM
MCF7 [14] = assay: Induction of apoptosis in human MCF7 cells assessed as increase in PARP1 level at 0.5 to 2 uM by Western blot analysis; type: functional, cell-based; settings: dose 0.5-2 µM
Mitochondrial membrane = assay: Induction of mitochondrial membrane potential loss in human MCF7 cells assessed as increase in JC-1 monomers by measuring increase in green fluorescence at 2 uM by flow cytometry analysis (reference value: 38.0%); type: cell membranes
MCF7 [15] = assay: Induction of apoptosis in human MCF7 cells assessed as early apoptotic cells at 0.5 uM incubated for 48 hrs by Annexin V/FITC and PI staining based flow cytometry analysis (reference value: 1.1%); type: functional
MCF7 [16] = assay: Induction of apoptosis in human MCF7 cells assessed as early apoptotic cells at 2 uM incubated for 48 hrs by Annexin V/FITC and PI staining based flow cytometry analysis (reference value: 1.1%); type: functional
MCF7 [17] = assay: Induction of apoptosis in human MCF7 cells assessed as late apoptotic cells at 2 uM incubated for 48 hrs by Annexin V/FITC and PI staining based flow cytometry analysis (reference value: 2.5%); type: functional
MCF7 [18] = assay: Induction of autophagy in human MCF7 cells assessed as increase in AMPK phosphorylation level at 0.5 to 2 uM incubated for 48 hrs by Western blotting analysis; type: functional, cell-based; settings: dose 0.5-2 µM
MCF7 [19] = assay: Induction of autophagy in human MCF7 cells harbouring beclin1 knockout assessed as increase in LC3B expression at 1 uM incubated for 48 hrs by Western blot analysis; type: functional, cell-based
MCF7 [20] = assay: Induction of autophagy in human MCF7 cells assessed as increase in ATG5 level at 1 uM by Western blot analysis; type: functional, cell-based
MCF7 [21] = assay: Induction of autophagic flux in human MCF7 cells assessed as appearance of multi membrane structure at 0.5 to 2 uM by TEM based analysis; type: functional, cell-based; settings: dose 0.5-2 µM
MCF7 [22] = assay: Induction of autophagic flux in human MCF7 cells assessed as colocalization of LC3B at 1 uM incubated for 48 hrs in presence of chloroquine by immunofluorescence analysis; type: functional, cell-based
MCF7 [23] = assay: Inhibition of colony formation in human MCF7 cells at 1 uM incubated for 6 hrs in presence of 3-methyladenine by crystal violet staining based analysis; type: functional, cell-based
[24] = Toxicity in female BALB/c mouse assessed as effect on spleen at 25 to 50 mg/kg, po qd measured after 18 days by H and E staining based analysis; type: organism-based; settings: in vivo, 432 h, dose 25-50 mg/kg, time 18 day
[25] = Toxicity in female BALB/c mouse assessed as effect ALP level in serum at 25 to 50 mg/kg, po qd measured after 18 days by biochemical analysis; type: organism-based; settings: in vivo, 432 h, dose 25-50 mg/kg, time 18 day
[26] = Toxicity in female BALB/c mouse assessed as effect TG level in serum at 25 to 50 mg/kg, po qd measured after 18 days by biochemical analysis; type: organism-based; settings: in vivo, 432 h, dose 25-50 mg/kg, time 18 day
4T1 [27] = assay: Antitumor activity against mouse 4T1 cells implanted in female BALB/c mouse model assessed as reduction in number of Ki67-positive proliferative cells at 25 to 50 mg/kg, po qd by immunohistochemical analysis; type: functional, organism-based; settings: dose 25-50 mg/kg
4T1 [28] = assay: Antitumor activity against mouse 4T1 cells implanted in female BALB/c mouse model assessed as reduction in number of PCNA-positive proliferative cells at 25 to 50 mg/kg, po qd by immunohistochemical analysis; type: functional, organism-based; settings: dose 25-50 mg/kg
4T1 [29] = assay: Antitumor activity against mouse 4T1 cells implanted in female BALB/c mouse model assessed as reduction in p-90RSK phosphorylation level at 50 mg/kg, po qd by immunohistochemical analysis; type: functional, organism-based
[30] = Toxicity in female BALB/c mouse assessed as effect on kidney at 50 mg/kg, po qd measured after 18 days in presence of chloroquine by H and E staining based analysis; type: organism-based; settings: in vivo, 432 h, time 18 day
4T1 [31] = assay: Antitumor activity against mouse 4T1 cells implanted in female BALB/c mouse model assessed as reduction in Ki67 expression at 50 mg/kg, po in presence of chloroquine by immunohistochemical analysis; type: functional, organism-based
4T1 [32] = assay: Antitumor activity against mouse 4T1 cells implanted in female BALB/c mouse model assessed as increase in LC3B expression administered as po by immunohistochemical analysis; type: functional, organism-based; settings: dose 25-50 mg/kg

Structure (SMILES): O=C(Nc1cc(C(F)(F)F)cc(C(F)(F)F)c1)N[C@@H](Cc1ccccc1)Cn1c[n+](Cc2ccc3ccccc3c2)c2ccccc21.[Br-]
- IC50 [1]: 0.0979 µM
- IC50 (MCF7 [2]): 0.67 µM
- IC50 (MCF-10A): > 10 µM
- AUC(0-inf) [3]: 1.1 µg·h/mL
- clearance [4]: 0.91 L/h/kg
- half-life [5]: 2.51 h
- Activity (MCF7 [6]): Active
- Activity (MCF7 [7]): Active
- inhibition [8]: 19%
- inhibition [9]: 18%
- inhibition [10]: 14%
- inhibition (MCF7 [11]): Active
- Activity (MCF7 [12]): Active
- Activity (MCF7 [13]): Active
- Activity (MCF7 [14]): Active
- Activity (Mitochondrial membrane): 52.4%
- Activity (MCF7 [15]): 9.9%
- Activity (MCF7 [16]): 12.9%
- Activity (MCF7 [17]): 14.8%
- Activity (MCF7 [18]): Active
- Activity (MCF7 [19]): inactive
- Activity (MCF7 [20]): Active
- Activity (MCF7 [21]): Active
- Activity (MCF7 [22]): Active
- inhibition (MCF7 [23]): Active
- Activity [24]: Non-toxic
- Activity [25]: Non-toxic
- Activity [26]: Non-toxic
- Activity (4T1 [27]): Active
- Activity (4T1 [28]): Active
- Activity (4T1 [29]): Active
- Activity [30]: Non-toxic
- Activity (4T1 [31]): Active
- Activity (4T1 [32]): Dose-dependent-effect
